Assay results from US20160106107A1, “Compositions and Methods for Treating Microorganism” (priority 2006, published 2016).
“And” between values parts separate entries of the source, which are not always exact repeats. Equal entries are not always repeated. Where two headings read alike, the source gives them in different places.

Key:
[1] = tested on: Pseudomonas syringae pv. phaseolicola HB-9 planktonic
[2] = tested on: Pseudomonas syringae pv. phaseolicola HB-9 biofilm
[3] = tested on: Erwinia carotovora subsp. carotovora (Ecc) biofilm; test: Ecc biofilm susceptibility, 24 h contact time; assay type: cell-based; conditions: for Ecc biofilm cell counts (unlabelled fourth line = mean of 3) / Log reduction of Ecc biofilms / Ecc biofilm cell counts (single replicates): 24 h contact time
Description: Carotovora (Ecc), the Soft Rot of Vegetables Pathogen, in Comparison to Nanocrystalline Silver Powder

[4] = tested on: naturally occurring microorganisms (bacteria and fungi) on bean seed surface; conditions: for Bacterial reduction / Fungal reduction / Total microbial reduction: vs untreated seeds, Experiments 1-3
Description: They included seeds that would normally be discarded during processing in a commercial seed treatment facility—damaged, discoloured, shrivelled or small seeds. Due to the fact they were not cleaned these seeds still contain soil, dirt, plant debris, etc. Therefore, this seed lot was expected to provide a good model for a high natural microbial challenge, with good diversity of organisms and high microbial recovery expected.
These seeds were processed and cleaned in a commercial seed treatment facility. Processing leads to rejection of small, damaged, and/or discoulored seeds, and thus a healthier overall seed lot. After processing, seeds were washed and cleaned, resulting in a significant reduction in soil, dirt or debris.
Experiments were conducted by treating lots of ‘Othello’ and ‘AC Polaris’ seeds with challenges described in Table 10. Seeds were placed individually onto wells of 12-well microtiter plates and treated for 1 h with silver and/or water. After treatment, seeds were rinsed by dipping into fresh phosphate buffer and subsequently transferred to a new 12-well microtiter plate containing fresh phosphate buffer and sonicated for 15-30 min. Sonication allowed for surviving bacterial and fungal to be removed from the seed surface and recovered into the liquid. After 6 days, each of the wells containing seeds were scored based on both: • the turbidity of the liquid in which they were originally immersed for treatment, on day 6. • seed surface area covered by bacterial and/or fungal colonization, also on day 6.
Six seeds were scored in each experiment and each experiment was repeated 3 times independently. Numbers presented on Tables 11, 13, and 15 represent the mean of 6 scores. […] Total microbial scores (bacteria and fungi together) and are represented as percentage of killing on Tables 12, 14, and 16.

[5] = tested on: dry bean (Phaseolus vulgaris L) seeds, cultivar Othello; test: Germination of dry bean seeds with aqueous seed coating under high bacterial load; assay type: in vivo; conditions: for # seeds germinated / % germination / Day to 25% germination: high bacterial load
Protocol: The efficacy of high valency silver ions produced by oxysilver nitrate was evaluated as a seed treatment on diseased dry bean seeds. The oxysilver nitrate was applied as an aqueous seed coating on the germination of dry bean (Phaseolus vulgaris L).
Seeds were placed on blotters in Petri plates, were soaked in an excess of water for 3 days, then drained on day 4. The 3-day period of excess water created a very high bacterial load′ on the germinating seeds and high disease pressure due to pathogenic, saprophytic and soft-rot bacteria. This disease pressure was so extreme that the germination rates for experiments 2-5 were essentially zero due to being overwhelmed by the microbial growth.

[6] = tested on: Orford (Soybean) seeds; conditions: for % of seeds germinated: Day 7 (speed of germination); for % germination: Day 14
Description: Germination on blotters was scored at 7- and 14-days. Emergence from soil was scored at 21- and 28-days.
To treat seeds, one hundred seeds were placed in a 50-mL Falcon tube and combined with the treatment solution. Seeds were mixed with the treatment for 5-min by gently rolling and inverting the Falcon tube. Coated seeds were placed in an open Petri plate for 30-min to dry. Seeds were sown 10-per pot, set in a greenhouse, and maintained under standard conditions with mercury lamp lighting supplementing daylight from 3:00 pm to 10:00 pm.
Stir constantly. 5% solution—after the 10% solution has equilibrated for 15-min, add 0.5-mL of 10% solution to 0.5-mL of sterile water. Stir constantly. 2.5% solution—add 0.25-mL of 10% solution to 0.75-mL of sterile water. Stir constantly. 1% solution—add 0.1-mL of 10% solution to 0.9-mL of sterile water. Stir constantly. […] Gently roll and invert the tube for 5 min to evenly coat each seed without causing damage. Remove seeds from tube by pouring carefully into an empty Petri plate. Leave exposed (lid off) and air dry seeds for 30 min.
(1) Germination: Place 50 seeds from each treatment onto 25 individual moistened blotters in large Petri plates. Incubate at room temperature for 2-weeks with or without light. Score germination at 7- and 14-days. (2) Emergence: Sow 50 seeds from each treatment into five pots (10-seeds per pot and five pots per treatment). Place in a greenhouse at 22° C. with ample air circulation. Use mercury lamps to supplement lighting (on at 3:00 pm; off at 10:00 pm) if necessary. For pre-emergent plants, water pots as needed to keep soil moist but not wet. Water emergent plants daily. Score emergence at 21 and 28 days.
After seeds were treated and air-dried, they were sown in potted, non-sterile soil in a greenhouse. Alternatively they were placed on moist blotters in large Petri plates.

[7] = tested on: healthy dry bean seed; test: Germination of healthy dry bean seed; assay type: in vivo
[8] = tested on: Pseudomonas syringae pv. phaseolicola on bean seed surface; conditions: Experiments 1-3; for Total microbial score: day 6, bacteria + fungi
[9] = lowest concentration (5000 ppm)
[10] = AC Polaris Inoculated, vs untreated seeds
[11] = AC Polaris seeds, inoculated w/ bacteria, 0.1%, 1 h, scored day 6 on scale 0-5, mean of 6 seeds
[12] = Othello Inoculated, vs untreated seeds

`O=S(=O)([O-])[O-].[Cu+2]` [Copper sulfate] was tested, and the “PspHB-9 Planktonic cell counts” value ([1]; 1250 ppm) was 2.95 log10, the “PspHB-9 Planktonic cell counts” value ([1]; 2900 ppm) was 0 log10 and the “PspHB-9 Planktonic cell counts” value ([1]; 4600 ppm) was 0 log10. For the same molecule, the reduction of planktonics [1, 9] was roughly 48%, the “PspHB-9 Biofilm cell counts” value ([2]; 1250 ppm) was 5.15 log10 and the “PspHB-9 Biofilm cell counts” value ([2]; 2900 ppm) was 0 log10. The “PspHB-9 Biofilm cell counts” value ([2]; 4600 ppm) was 0 log10, the reduction of biofilms [2, 9] was 17% and the “concentration required to be effective” value ([2]; planktonic cells and biofilms) was 11460 ppm.

In the case of oxysilver nitrate [High valency silver], the “Ecc biofilm cell counts (unlabelled fourth line = mean of 3)” value ([3]; 50 ppm) is reported as 1.53 log10, the “Log reduction of Ecc biofilms” value ([3]; 50 ppm) is reported as 2.23 and the “Ecc biofilm cell counts (single replicates)” value ([3]; 50 ppm, listed as Oxy) is reported as 1.60 log10 and 1.00 log10 and 2.00 log10. The “Ecc biofilm cell counts (unlabelled fourth line = mean of 3)” value ([3]; 100 ppm) was 0.65 log10, the “Log reduction of Ecc biofilms” value ([3]; 100 ppm) was 3.11 and the “Ecc biofilm cell counts (single replicates)” value ([3]; 100 ppm, listed as Oxy) was 0 log10 (2×) and 1.95 log10. The “Ecc biofilm cell counts (unlabelled fourth line = mean of 3)” value ([3]; 200 ppm) was 0.70 log10, the “Log reduction of Ecc biofilms” value ([3]; 200 ppm) was 3.06 and the “Ecc biofilm cell counts (single replicates)” value ([3]; 200 ppm, listed as Oxy) was 0 log10 (2×) and 2.11 log10. For the same molecule, the “Ecc biofilm cell counts (single replicates)” value ([3]; 500 ppm) was 0 log10, the “Ecc biofilm cell counts (unlabelled fourth line = mean of 3)” value ([3]; 500 ppm) was 0.00 log10 and the “Log reduction of Ecc biofilms” value ([3]; 500 ppm) was 3.76. For the same molecule, the “anti-microbial efficacy compared with nanocrystalline silver” value ([3]; plant pathogenic Erwinia spp.) was “as efficacious as nanocrystalline silver”, the Bacterial reduction ([4]; AC Polaris Non-inoculated) was 67% and 90% and 100% and the Fungal reduction ([4]; AC Polaris Non-inoculated) was 100% and 62%. The Total microbial reduction ([4]; AC Polaris Non-inoculated) was 81% and 78% and 100%, the Bacterial reduction ([4]; Othello Non-inoculated) was 80% and 62% and 88% and the Fungal reduction ([4]; Othello Non-inoculated) was 70% and 100% and 74%. The Total microbial reduction ([4]; Othello Non-inoculated) was 75% and 86% and 81%, the “bactericidal and fungicidal efficacy” value ([4]; various bacterial and fungal species associated with seed surfaces, 3 independent replications) was “good bactericidal and fungicidal efficacy” and the “# seeds germinated” value ([5]; 0.1%) was 53. For the same molecule, the “% germination” value ([5]; 0.1%) was 35.3%, the “Day to 25% germination” value ([5]; 0.1%) was 5 days and the “# seeds germinated” value ([5]; 0.5%) was 53. The “% germination” value ([5]; 0.5%) was 35.3%, the “Day to 25% germination” value ([5]; 0.5%) was 5 days and the “germination higher than Apron Maxx RTA” value ([5]; 1%, by day 10) was 54%. For the same molecule, the “increase of germination compared with the negative control (sterile water)” value ([5]; 1%, by day 10) was 34.7%, the “# seeds germinated” value ([5]; 1%) was 91 and the “% germination” value ([5]; 1%) was 60.7%. For the same molecule, the “Day to 25% germination” value ([5]; 1%) was 5 days, the “# seeds germinated” value ([5]; […]) was 51 and the “% germination” value ([5]; […]) was 43.0%. The “Day to 25% germination” value ([5]; […]) was 5 days, the “% of seeds germinated” value ([6]; 0.1%) was 28% and the “% germination” value ([6]; 0.1%) was 50%. For the same molecule, the “% of seeds germinated” value ([6]; 0.5%) was 34.5%, the “% germination” value ([6]; 0.5%) was 58% and the “% of seeds germinated” value ([6]; 1%) was 59.4%. The “% germination” value ([6]; 1%) was 64%, the “germination rate higher than water” value ([6]; 1%, after 14 days) was 34% and the “% of seeds germinated” value ([6]; […]) was 29.6%. The “% germination” value ([6]; […]) was 54%, the “bacterial growth on treated seeds” value ([6]; soybean seeds and blotters) was “did not appear to have major bacterial growth” and the “# seeds germinated” value ([7]; 0.1%) was 84. The “% germination” value ([7]; 0.1%) was 84%, the “Day to 50% germination” value ([7]; 0.1%) was 6.5 days and the “Day to 100% germination” value ([7]; 0.1%) was 9.0 days. For the same molecule, the “# seeds germinated” value ([7]; 0.5%) was 86, the “% germination” value ([7]; 0.5%) was 86% and the “Day to 50% germination” value ([7]; 0.5%) was 6.0 days. The “Day to 100% germination” value ([7]; 0.5%) was 9.0 days, the “# seeds germinated” value ([7]; 1%) was 89 and the “% germination” value ([7]; 1%) was 89%. For the same molecule, the “Day to 100% germination” value ([7]; 1%) was 9.0 days, the “# seeds germinated” value ([7]; […]) was 81 and the “% germination” value ([7]; […]) was 81%. The “Day to 100% germination” value ([7]; […]) was 9.0 days, the “germination compared with water control or Apron Maxx RTA” value ([7]; healthy dry bean seed) was “more rapid germination and higher percent germination rate” and the “PspHB-9 Planktonic cell counts” value ([1]; 100 ppm) was 0 log10. For the same molecule, the “PspHB-9 Planktonic cell counts” value ([1]; 500 ppm) was 0 log10, the “PspHB-9 Planktonic cell counts” value ([1]; 1000 ppm) was 0 log10 and the eradication of planktonic ([1]; at the lowest concentration) was 100%. For the same molecule, the “PspHB-9 Biofilm cell counts” value ([2]; 100 ppm) was 0 log10, the “PspHB-9 Biofilm cell counts” value ([2]; 500 ppm) was 0 log10 and the “PspHB-9 Biofilm cell counts” value ([2]; 1000 ppm) was 0 log10. For the same molecule, the eradication of biofilm ([2]; at the lowest concentration) was 100%, the Bacterial reduction [8, 10] was 100% and 96% and the Total microbial reduction [8, 10] was 100% and 96%. For the same molecule, the Total microbial score ([8]; AC Polaris seeds, inoculated w/ bacteria, 0.1%, 1 h) was 0, the Total microbial score ([8]; AC Polaris seeds, inoculated w/ bacteria, 0.1%, 1 h, listed as High valency silver nitrate 1) was 0.16 and the Bacteria score [8, 11] was 0. The Fungi score [8, 11] was 0, the Bacteria score ([8]; AC Polaris seeds, inoculated w/ bacteria, 0.1%, 1 h, scored day 6 on scale 0-5, mean of 6 seeds, listed as High valency silver nitrate 1) was 0.16 and the Bacterial reduction [8, 12] was 41% and 78% and 60%. For the same molecule, the Fungal reduction [8, 12] was 78% and 75% and 100%, the Total microbial reduction [8, 12] was 65% and 77% and 79% and the Total microbial score ([8]; Othello seeds, inoculated w/ bacteria, 0.1%, 1 h) was 1.83 and 1.32 and 1.66.
